“And” between values parts separate entries of the source, which are not always exact repeats. Equal values may be shown once.
Test system: 171881-019-R-J1-PDC complex spheroid viability
Experiment: Anticancer human tumor 171881-019-R-J1-PDC patient-derived invasive breast carcinoma cell line growth inhibition
Conditions: for viability, T/C: stronger effect = lower value
How it was run: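 Complex spheroids of tumor cells with HUVEC and human MSCs, exposed to iadademstat combined with other agents. Each agent tested in half-log steps from near clinical Cmax (else 10 microM top), DMSO ≤0.25%.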

[1] = curve of first compound, second compound 0.1 µM
[2] = curve of first compound, second compound 0.316 µM
[3] = curve of first compound, second compound 1 µM
[4] = curve of first compound, second compound 3.16 µM
[5] = curve of first compound, second compound 10 µM
[6] = second compound 0.1 µM, first compound 0.00316 µM
[7] = second compound 0.1 µM, first compound 0.01 µM
[8] = second compound 0.1 µM, first compound 0.0316 µM
[9] = second compound 0.1 µM, first compound 0.1 µM
[10] = second compound 0.316 µM, first compound 0.00316 µM
[11] = second compound 0.316 µM, first compound 0.01 µM
[12] = second compound 0.316 µM, first compound 0.0316 µM
[13] = second compound 0.316 µM, first compound 0.1 µM
[14] = second compound 1 µM, first compound 0.00316 µM
[15] = second compound 1 µM, first compound 0.01 µM
[16] = second compound 1 µM, first compound 0.0316 µM
[17] = second compound 1 µM, first compound 0.1 µM
[18] = second compound 3.16 µM, first compound 0.00316 µM
[19] = second compound 3.16 µM, first compound 0.01 µM
[20] = second compound 3.16 µM, first compound 0.0316 µM
[21] = second compound 3.16 µM, first compound 0.1 µM
[22] = second compound 10 µM, first compound 0.00316 µM
[23] = second compound 10 µM, first compound 0.01 µM
[24] = second compound 10 µM, first compound 0.0316 µM
[25] = second compound 10 µM, first compound 0.1 µM
[26] = second compound 0.1 µM, first compound 0.00949 µM
[27] = second compound 0.1 µM, first compound 0.03 µM
[28] = second compound 0.1 µM, first compound 0.0949 µM
[29] = second compound 0.1 µM, first compound 0.3 µM
[30] = second compound 0.1 µM, first compound 0.949 µM
[31] = second compound 0.1 µM, first compound 3 µM
[32] = second compound 0.316 µM, first compound 0.00949 µM
[33] = second compound 0.316 µM, first compound 0.03 µM
[34] = second compound 0.316 µM, first compound 0.0949 µM
[35] = second compound 0.316 µM, first compound 0.3 µM
[36] = second compound 0.316 µM, first compound 0.949 µM
[37] = second compound 0.316 µM, first compound 3 µM
[38] = second compound 1 µM, first compound 0.00949 µM
[39] = second compound 1 µM, first compound 0.03 µM
[40] = second compound 1 µM, first compound 0.0949 µM
[41] = second compound 1 µM, first compound 0.3 µM
[42] = second compound 1 µM, first compound 0.949 µM
[43] = second compound 1 µM, first compound 3 µM
[44] = second compound 3.16 µM, first compound 0.00949 µM
[45] = second compound 3.16 µM, first compound 0.03 µM
[46] = second compound 3.16 µM, first compound 0.0949 µM
[47] = second compound 3.16 µM, first compound 0.3 µM
[48] = second compound 3.16 µM, first compound 0.949 µM
[49] = second compound 3.16 µM, first compound 3 µM
[50] = second compound 10 µM, first compound 0.00949 µM
[51] = second compound 10 µM, first compound 0.03 µM
[52] = second compound 10 µM, first compound 0.0949 µM
[53] = second compound 10 µM, first compound 0.3 µM
[54] = second compound 10 µM, first compound 0.949 µM
[55] = second compound 10 µM, first compound 3 µM

## CC[C@@]1(O)C(=O)OCc2c1cc1n(c2=O)Cc2cc3c(CN(C)C)c(O)ccc3nc2-1 + NC1CC1c1ccc(-c2cccc(O)c2)cc1
[1]
  IC50: 71.1 nM
[2]
  IC50: 80.4 nM
[3]
  IC50: 36.6 nM
[4]
  IC50: 37.4 nM
[5]
  IC50: 21 nM
Second compound 0.1 µM, first compound 0.000316 µM
  viability, T/C: 103%
Second compound 0.1 µM, first compound 0.001 µM
  viability, T/C: 104%
[6]
  viability, T/C: 84.4%
[7]
  viability, T/C: 68.9%
[8]
  viability, T/C: 64.3%
[9]
  viability, T/C: 44.2%
Second compound 0.316 µM, first compound 0.000316 µM
  viability, T/C: 108%
Second compound 0.316 µM, first compound 0.001 µM
  viability, T/C: 107%
[10]
  viability, T/C: 87.8%
[11]
  viability, T/C: 70.5%
[12]
  viability, T/C: 61.9%
[13]
  viability, T/C: 46.4%
Second compound 1 µM, first compound 0.000316 µM
  viability, T/C: 103%
Second compound 1 µM, first compound 0.001 µM
  viability, T/C: 105%
[14]
  viability, T/C: 90.7%
[15]
  viability, T/C: 70.3%
[16]
  viability, T/C: 53.2%
[17]
  viability, T/C: 39.6%
Second compound 3.16 µM, first compound 0.000316 µM
  viability, T/C: 101%
Second compound 3.16 µM, first compound 0.001 µM
  viability, T/C: 96.7%
[18]
  viability, T/C: 90.5%
[19]
  viability, T/C: 66.8%
[20]
  viability, T/C: 55.9%
[21]
  viability, T/C: 33.6%
Second compound 10 µM, first compound 0.000316 µM
  viability, T/C: 90.1%
Second compound 10 µM, first compound 0.001 µM
  viability, T/C: 85.3%
[22]
  viability, T/C: 78.9%
[23]
  viability, T/C: 57.3%
[24]
  viability, T/C: 47%
[25]
  viability, T/C: 37.4%

## CC(C)CC(NC(=O)C(Cc1ccccc1)NC(=O)c1cnccn1)B(O)O (configuration not stated)
Compound 0.000316 µM
  viability, T/C: 9.71% and 22.8%
Compound 0.001 µM
  viability, T/C: 1.12% and 20.1%
Compound 0.00316 µM
  viability, T/C: 0.41% and 17.8%
Compound 0.01 µM
  viability, T/C: 0.25% and 10.1%
Compound 0.0316 µM
  viability, T/C: 0.24% and 12%
Compound 0.1 µM
  viability, T/C: 0.17% and 6.28%
Curve of compound
  IC50: < 0.316 nM

## Nc1ccccc1NC(=O)c1ccc(CNC(=O)OCc2cccnc2)cc1 + NC1CC1c1ccc(-c2cccc(O)c2)cc1
[1]
  IC50: 525 nM
[2]
  IC50: 530 nM
[3]
  IC50: 520 nM
[4]
  IC50: 481 nM
[5]
  IC50: 441 nM
[26]
  viability, T/C: 101%
[27]
  viability, T/C: 96.2%
[28]
  viability, T/C: 107%
[29]
  viability, T/C: 89.4%
[30]
  viability, T/C: 8.16%
[31]
  viability, T/C: 0.69%
[32]
  viability, T/C: 104%
[33]
  viability, T/C: 102%
[34]
  viability, T/C: 109%
[35]
  viability, T/C: 90.8%
[36]
  viability, T/C: 8.21%
[37]
  viability, T/C: 0.84%
[38]
  viability, T/C: 101%
[39]
  viability, T/C: 103%
[40]
  viability, T/C: 107%
[41]
  viability, T/C: 88.6%
[42]
  viability, T/C: 7.91%
[43]
  viability, T/C: 0.77%
[44]
  viability, T/C: 100%
[45]
  viability, T/C: 102%
[46]
  viability, T/C: 90.8%
[47]
  viability, T/C: 80.6%
[48]
  viability, T/C: 6.04%
[49]
  viability, T/C: 0.79%
[50]
  viability, T/C: 88%
[51]
  viability, T/C: 82.6%
[52]
  viability, T/C: 82.3%
[53]
  viability, T/C: 70.9%
[54]
  viability, T/C: 8.68%
[55]
  viability, T/C: 0.61%

## CC1COCCN1c1cc(-c2ccnn2C)c2ccnc(-c3ccn[nH]3)c2n1 (configuration not stated) + NC1CCC(NC2CC2c2ccccc2)CC1
[1]
  IC50: 10.2 nM
[2]
  IC50: 9.5 nM
[3]
  IC50: 10.5 nM
[4]
  IC50: 13.6 nM
[5]
  IC50: 13.7 nM
[6]
  viability, T/C: 57%
[7]
  viability, T/C: 50.7%
[8]
  viability, T/C: 18.8%
[9]
  viability, T/C: 8.26%
Second compound 0.1 µM, first compound 0.316 µM
  viability, T/C: 6.58%
Second compound 0.1 µM, first compound 1 µM
  viability, T/C: 5.76%
[10]
  viability, T/C: 63.3%
[11]
  viability, T/C: 49.5%
[12]
  viability, T/C: 19%
[13]
  viability, T/C: 8.72%
Second compound 0.316 µM, first compound 0.316 µM
  viability, T/C: 6.3%
Second compound 0.316 µM, first compound 1 µM
  viability, T/C: 6.44%
[14]
  viability, T/C: 65.3%
[15]
  viability, T/C: 51.2%
[16]
  viability, T/C: 24.1%
[17]
  viability, T/C: 10.6%
Second compound 1 µM, first compound 0.316 µM
  viability, T/C: 6.7%
Second compound 1 µM, first compound 1 µM
  viability, T/C: 7.53%
[18]
  viability, T/C: 70.8%
[19]
  viability, T/C: 58.9%
[20]
  viability, T/C: 25.7%
[21]
  viability, T/C: 9.54%
Second compound 3.16 µM, first compound 0.316 µM
  viability, T/C: 7.15%
Second compound 3.16 µM, first compound 1 µM
  viability, T/C: 6.61%
[22]
  viability, T/C: 70%
[23]
  viability, T/C: 58.3%
[24]
  viability, T/C: 27.1%
[25]
  viability, T/C: 10.1%
Second compound 10 µM, first compound 0.316 µM
  viability, T/C: 7.47%
Second compound 10 µM, first compound 1 µM
  viability, T/C: 10.2%

## CCN(c1cc(-c2ccc(CN3CCOCC3)cc2)cc(C(=O)NCc2c(C)cc(C)[nH]c2=O)c1C)C1CCOCC1 + NC1CC1c1ccc(-c2cccc(O)c2)cc1
[1]
  IC50: 2130 nM
[2]
  IC50: 2050 nM
[3]
  IC50: 1840 nM
[4]
  IC50: 1510 nM
[5]
  IC50: 1180 nM
[26]
  viability, T/C: 102%
[27]
  viability, T/C: 109%
[28]
  viability, T/C: 102%
[29]
  viability, T/C: 84.8%
[30]
  viability, T/C: 68%
[31]
  viability, T/C: 42.7%
[32]
  viability, T/C: 102%
[33]
  viability, T/C: 107%
[34]
  viability, T/C: 105%
[35]
  viability, T/C: 88.4%
[36]
  viability, T/C: 66.8%
[37]
  viability, T/C: 42%
[38]
  viability, T/C: 99.3%
[39]
  viability, T/C: 108%
[40]
  viability, T/C: 96.6%
[41]
  viability, T/C: 74.9%
[42]
  viability, T/C: 61%
[43]
  viability, T/C: 43%
[44]
  viability, T/C: 96%
[45]
  viability, T/C: 91.7%
[46]
  viability, T/C: 90.6%
[47]
  viability, T/C: 75.2%
[48]
  viability, T/C: 59%
[49]
  viability, T/C: 37.6%
[50]
  viability, T/C: 78.5%
[51]
  viability, T/C: 77.4%
[52]
  viability, T/C: 82.2%
[53]
  viability, T/C: 60.2%
[54]
  viability, T/C: 55.7%
[55]
  viability, T/C: 38.8%

## Nc1ccccc1NC(=O)c1ccc(CNC(=O)OCc2cccnc2)cc1 + NC1CCC(NC2CC2c2ccccc2)CC1
[1]
  IC50: 263 nM
[2]
  IC50: 252 nM
[3]
  IC50: 277 nM
[4]
  IC50: 288 nM
[5]
  IC50: 325 nM
[26]
  viability, T/C: 86.6%
[27]
  viability, T/C: 85.5%
[28]
  viability, T/C: 117%
[29]
  viability, T/C: 43.9%
[30]
  viability, T/C: 2.1%
[31]
  viability, T/C: 0.32%
[32]
  viability, T/C: 89.2%
[33]
  viability, T/C: 98.6%
[34]
  viability, T/C: 119%
[35]
  viability, T/C: 40.8%
[36]
  viability, T/C: 2.42%
[37]
  viability, T/C: 0.34%
[38]
  viability, T/C: 91.3%
[39]
  viability, T/C: 104%
[40]
  viability, T/C: 116%
[41]
  viability, T/C: 46%
[42]
  viability, T/C: 1.97%
[43]
  viability, T/C: 0.29%
[44]
  viability, T/C: 87.8%
[45]
  viability, T/C: 96%
[46]
  viability, T/C: 115%
[47]
  viability, T/C: 48.1%
[48]
  viability, T/C: 2.3%
[49]
  viability, T/C: 0.22%
[50]
  viability, T/C: 92.5%
[51]
  viability, T/C: 109%
[52]
  viability, T/C: 126%
[53]
  viability, T/C: 53.6%
[54]
  viability, T/C: 2.32%
[55]
  viability, T/C: 0.27%

— PubChem BioAssay AID1918932 (Molecular Pharmacology Branch, DTP, NCI, 2023)
